Read-outs that look alike come from different tables or passages of the source.
What was measured:
[1] = test system: Myc-Max dimerization; design: method as in PMID 13679853; details: cited from earlier work
[2] = test system: Max; design: method as in PMID 13679853; details: cited from earlier work
[3] = target: T1, Myc402–412 peptide (Homo sapiens, UniProt P01106); design: method as in PMID 19022175; details: 20 µM peptide; cited from earlier work
T1 construct: purchased Genscript; host or cells: solid phase peptide synthesis

[4] = Dynamic light scattering (DLS) of 34RH; format: physicochemical; details: for DLS correlation function (nano-sized particles): 1xPBS, 5% DMSO, pH 7.4
Protocol: The small molecule (Z)-4-((4-oxo-2-thioxothiazolidin-5-ylidene)methyl)benzoic acid (hereafter referred to as 34RH) was previously synthesized according to established procedures, and the structure was confirmed by ^1H and ^13C NMR (Figure S6) using a 400 MHz spectrometer. The dry compound was stored at 4 °C. Stock solutions (1 mM) of 34RH were made using either dimethyl sulfoxide (DMSO) or ethanol and stored at −20 °C. Fluorescence and dynamic light scattering (DLS) experiments were performed using DMSO, while circular dichroism (CD) was conducted using ethanol to avoid the high absorbance of DMSO at short wavelengths. DLS measurements were performed on 34RH using an LS Spectrophotometer (LS Instruments) at 25 °C (Figure S3). The dispersant viscosity was set for water. Samples were analyzed in 1xPBS (pH 7.4) and 5% total DMSO. The compound was serially diluted two-fold from 100 μM to a final concentration of 6.25 μM. Samples were placed into 5 mm cylindrical glass cuvettes (LS Instruments) and measured using a 600 nm laser at a 90° angle for 20 s. The data were analyzed using LS Spectrophotometer software provided by the manufacturer.

[5] = Imide pKa determination by UV/Vis; format: physicochemical; details: 1xPBS at various pH values; UV/Vis absorbance at 327 nm, 10 µM 34RH in 1xPBS; read-out: pKa of the imide group of the rhodanine heterocycle
Protocol: The imide pKa of 34RH was determined using UV/Vis by measuring the absorbance of 10 µM of 34RH in 1xPBS at various pH values using an Agilent 8453 UV/Vis spectrophotometer (Figure S2). The absorbance at 327 nm for each pH value was fit to a curve using the Henderson-Hasselbalch (shown in Equations (1) and (2)), where c is the pKa, x is the pH, a is the signal for the fully protonated acid, and b is the signal for the fully ionized base. (1) pKa−pH=log acid/base (2) y=a+b∗10^c−x/1+10^c−x

[6] = target: T2, Myc353–437 (Homo sapiens, UniProt P01106); test: Equimolar tyrosine fluorescence quenching titration; details: equimolar Myc353–437 and 34RH, 1x PBS, 25 °C, pH 7.4; 1:1 binding model
T2 construct: 6xHis tag + TEV site (N, cleaved yes); made in house; host or cells: E. coli BL21(DE3) pLysS
T2 sequence (P01106 368-452): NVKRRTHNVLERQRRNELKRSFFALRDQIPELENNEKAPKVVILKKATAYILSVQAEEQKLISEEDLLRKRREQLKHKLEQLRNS
Protocol: 5 x 1 05 y = m 1 * x/ ( m 2 + x)
Wavel ength (nm ) [34Rh] µM
Fig S5. Equimolar Myc353-437 and 34RH interaction monitored via tyrosine fluorescence quenching. (A) 50 µM Myc353-437 in the presence (filled black squares) and absence (open black squares) equimolar 34RH in 1x PBS at 25 ℃, pH 7.4. (B) Equilibrium quenching of […]
µM. Error bars represent the standard error of three independent trials. Representative fluorescence signals were inner filter corrected to account for any fluorescence suppression due the absorbance of protein and 34RH [46]. The quenching data was fitted to a binding model shown below described in Dobrev et al.
Fraction Quenched = Q!"# × $
Here, Qmax is the fraction quenched for the formation of the complete complex between Myc353-437 and 34RH. [C]tot is the total concentration of Myc353-437 or 34RH and KD the dissociation constant.

[7] = target: T3, P22 Max (Homo sapiens, UniProt P61244); test: Circular dichroism with and without 34RH; details: 1 µM P22 Max, 50 µM 34RH, pH 7.4
T3 construct: 6xHis tag + TEV site (N, cleaved yes); made in house; host or cells: E. coli BL21(DE3) pLysS
T3 sequence (P61244 whole entry): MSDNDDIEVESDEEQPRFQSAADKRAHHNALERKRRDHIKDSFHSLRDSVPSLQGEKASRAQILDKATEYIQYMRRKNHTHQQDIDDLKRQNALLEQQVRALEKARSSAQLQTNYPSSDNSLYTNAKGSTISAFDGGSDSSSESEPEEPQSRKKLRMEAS
Protocol: (§1) Samples containing Myc353–437, Myc402–412 peptide, MaxRH, Max isoforms, or mutants in the absence and presence of excess concentrations of 34RH were prepared in 1xCD buffer (50 mM KF, 4.3 mM NaH2PO4, 1.4 mM KH2PO4, 5% ethanol). The pH of the buffer was adjusted to either 6 or 7.4 depending on the experiment conducted. The compound was delivered from a 1 mM ethanol stock solution. Samples were incubated for 1 hr before measurement. The far UV-spectra of the proteins and peptide were recorded in a quartz cuvette with a path length of 0.1 cm using a Jasco J720 spectropolarimeter. The samples were scanned from 270 to 195 nm with an increment of 1 nm, constant bandwidth of 10 nm, and a scanning speed of 1 nm per minute. After subtracting the buffer signal, the raw data in millidegrees was converted to mean residue ellipticity (MRE).

[8] = target: T2, Myc353–437; test: Circular dichroism with and without 34RH; details: 2.5 µM Myc353–437, 50 µM 34RH
Protocol: as §1

[9] = target: T4, MaxRH-Y115F/Y123F (Homo sapiens, UniProt P61244, K77E/M74V/Q72L/R75Q/R76A/Y115F/Y123F/Y73S); test: Circular dichroism with and without 34RH; details: 1 µM MaxRH-Y115F/Y123F, 50 µM 34RH
T4 construct: 6xHis tag + TEV site (N, cleaved yes); made in house; host or cells: E. coli BL21(DE3) pLysS
T4 sequence (P61244 whole entry Q72L/Y73S/M74V/R75Q/R76A/K77E/Y115F/Y123F): as the sequence (P61244 whole entry) above, with Q72L, Y73S, M74V, R75Q, R76A, K77E, Y115F, Y123F counted along it
Protocol: as §1

[10] = target: T5, P21 Max (Homo sapiens, UniProt P61244); test: Circular dichroism with and without 34RH; details: 4 µM P21 Max, 50 µM 34RH, pH 7.4
T5 construct: 6xHis tag + TEV site (N, cleaved yes); made in house; host or cells: E. coli BL21(DE3) pLysS
T5 sequence (P61244 1-151 isoform P61244-2): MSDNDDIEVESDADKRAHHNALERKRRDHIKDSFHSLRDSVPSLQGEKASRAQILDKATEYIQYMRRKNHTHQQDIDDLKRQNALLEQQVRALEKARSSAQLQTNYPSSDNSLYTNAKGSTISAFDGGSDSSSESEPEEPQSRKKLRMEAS
Protocol: as §1

[11] = target: T6, MaxRH (Homo sapiens, UniProt P61244, K77E/M74V/Q72L/R75Q/R76A/Y73S); test: Circular dichroism with and without 34RH; details: 1 µM MaxRH, 50 µM 34RH
T6 construct: 6xHis tag + TEV site (N, cleaved yes); made in house; host or cells: E. coli BL21(DE3) pLysS
T6 sequence (P61244 whole entry Q72L/Y73S/M74V/R75Q/R76A/K77E): as the sequence (P61244 whole entry) above, with Q72L, Y73S, M74V, R75Q, R76A, K77E counted along it
Protocol: as §1

[12] = target: T3, P22 Max; test: Tyrosine fluorescence quenching titration; format: binding; details: 1 µM P22 Max
Protocol: (§2) The lyophilized protein (or peptide) was reconstituted in ultrapure water and incubated to room temperature for at least 1 hr. The protein or peptide was then sterile filtered using a pre-wet 0.2 μm polyethylene sulfone (PES) filter (VWR), and the concentration was determined by the absorbance at 274 nm using the extinction coefficient per tyrosine of ε274 = 1470 M^−1cm^−1. The final stock concentrations ranged from 50 to 100 μM.
(§3) For excess 34RH tyrosine fluorescence quenching experiments, samples were prepared with the following buffer components: sterile filtered water, 1xPBS (137 mM NaCl, 2.7 mM KCl, 4.3 mM Na2HPO4, 1.4 mM KH2PO4), and 5% total DMSO. The pH of the buffer was adjusted to 6 or 7.4 depending on the experiment performed. Three separate samples were prepared in 1xPBS and 5% total DMSO: one containing 50 μM 34RH alone, one containing 1 μM of protein and 50 μM 34RH, and one containing 1 μM protein alone. For the 34RH containing samples, the compound was delivered from a 1 mM DMSO stock. These samples were then serially diluted two-fold from 50 μM 34RH to 1.56 μM 34RH. All samples for fluorescence measurements maintained a final 5% DMSO concentration.
(§4) The samples were incubated for at least 15 min before fluorescence was measured. The samples were excited at 274 nm, and the emission spectra were obtained from 285 to 340 nm using 5 nm excitation and 5 nm emission slits using a Horiba Fluoromax 4 fluorometer. The fluorescence data were background corrected using buffer (for samples with only protein) or small molecule (for samples containing protein and 34RH) (Figure S4). The absorbance due to 34RH and protein at the excitation and emission wavelengths can suppress the observed fluorescence intensity to give rise to the inner filter effect. To account for this suppression, we corrected the fluorescence signals using Equation (3). This correction accounted for the fluorescence suppression due to the absorbance of both 34RH and the protein [47]. (3) Fcorr=Fobs∗ 10^Aex+ Aem/2
(§5) Here, the corrected fluorescence is Fcorr, the background-subtracted observed fluorescence is Fobs, and Aex and Aem are the total absorbance at the excitation and emission wavelengths, respectively. The amount of protein fluorescence quenched by 34RH at a particular concentration was calculated using Fcorr at λ = 304 nm (Equation (4)). (4) Fraction Quenched=1−Fcorr304nm of Protein +34RH/ Fcorr304nm of Protein only
(§6) The quenching data were fit to a Langmuir binding isotherm using Equation (5), from which the dissociation constant (KD) was obtained. Here, Qmax describes the maximum fraction quenched, [L]T is the total 34RH concentration, and [P]T is the total protein concentration. The total concentration of the protein was 1 µM for all fluoresce experiments conducted at a constant protein concentration. (5) Fraction Quenched=Qmax∗([L]T+P]T+ KD−(L]T+P]T+ KD)^2−4 ∗ L]T ∗ P]T/2∗[L]T

[13] = target: T7, Myc353–437 A401E (Homo sapiens, UniProt P01106, A416E); test: Tyrosine fluorescence quenching titration; format: binding; details: Myc353–437 A401E mutant
T7 construct: We constructed Myc353–437 A401E to determine if the same flanking residue would be permissive; 6xHis tag + TEV site (N, cleaved yes); made in house; host or cells: E. coli BL21(DE3) pLysS
T7 sequence (P01106 368-452 A416E): as the sequence (P01106 368-452) above, with A49E counted along it
Protocol: as §2, §3, §4, §5, §6

[14] = target: T4, MaxRH-Y115F/Y123F; test: Tyrosine fluorescence quenching titration; format: binding; details: 1 µM MaxRH-Y115F/Y123F
Protocol: as §2, §3, §4, §5, §6

[15] = target: T5, P21 Max; test: Tyrosine fluorescence quenching titration; format: binding; details: 1 µM P21 Max, pH 7.4
Protocol: as §2, §3, §4, §5, §6

[16] = target: T8, MaxRH-N78E (Homo sapiens, UniProt P61244, K77E/M74V/N78E/Q72L/R75Q/R76A/Y73S); test: Tyrosine fluorescence quenching titration; format: binding; details: MaxRH-N78E mutant
T8 construct: 6xHis tag + TEV site (N, cleaved yes); made in house; host or cells: E. coli BL21(DE3) pLysS
T8 sequence (P61244 whole entry Q72L/Y73S/M74V/R75Q/R76A/K77E/N78E): as the sequence (P61244 whole entry) above, with Q72L, Y73S, M74V, R75Q, R76A, K77E, N78E counted along it
Protocol: as §2, §3, §4, §5, §6

[17] = target: T1, Myc402–412 peptide; test: Tyrosine fluorescence quenching titration; format: binding
Protocol: as §2, §3, §4, §5, §6

[18] = target: T6, MaxRH; test: Tyrosine fluorescence quenching titration; format: binding; details: for Kd: 1 µM MaxRH, read-out: dissociation constant (KD)
Protocol: as §2, §3, §4, §5, §6

[19] = target: T9, Myc353–437 E410N (Homo sapiens, UniProt P01106, E425N); test: Tyrosine fluorescence quenching titration; format: binding; details: Myc353–437 E410N mutant
T9 construct: 6xHis tag + TEV site (N, cleaved yes); made in house; host or cells: E. coli BL21(DE3) pLysS
T9 sequence (P01106 368-452 E425N): as the sequence (P01106 368-452) above, with E58N counted along it
Protocol: as §2, §3, §4, §5, §6

[20] = target: T2, Myc353–437; test: Tyrosine fluorescence quenching titration, excess 34RH; details: 1 µM Myc353–437, excess 34RH, 1xPBS, 25 °C, pH 7.4; Langmuir binding isotherm; read-out: dissociation constant (KD)
Protocol: as §2
For excess 34RH tyrosine fluorescence quenching experiments, samples were prepared with the following buffer components: sterile filtered water, 1xPBS (137 mM NaCl, 2.7 mM KCl, 4.3 mM Na2HPO4, 1.4 mM KH2PO4), and 5% total DMSO. […] All samples for fluorescence measurements maintained a final 5% DMSO concentration.
as §4, with “The samples were excited at 274 nm, and the emission spectra were obtained from 285 to 340 nm using 5 nm excitation and 5 nm emission slits using a Horiba Fluoromax 4 fluorometer.” left out, “(3) Fcorr=Fobs∗ 10^Aex+ Aem/2” left out

[21] = target: T1, Myc402–412 peptide; test: Circular dichroism with and without small molecule; details: 2.5 µM Myc402–412 peptide, 50 µM 34RH
Protocol: as §1

## CCc1ccc(/C=C2/SC(=S)NC2=O)cc1 [1RH]
[1]
  effect on Myc-Max dimerization: disrupted Myc-Max dimerization
[2]
  interaction with Max: not to interact
[3]
  effect on peptide secondary structure (CD): induced a substantial shift in the peptide’s secondary structure

## O=C1NC(=S)S/C1=C\c1ccc(C(=O)O)cc1 [34RH, (Z)-4-((4-oxo-2-thioxothiazolidin-5-ylidene)methyl)benzoic acid]
[4]; 100 µM
  DLS correlation function (nano-sized particles): a correlation was observed
[4]; concentrations below 50 µM
  DLS correlation function (nano-sized particles): no correlation function
[4]; neutral pH
  solubility based on dynamic light scattering: good solubility
[5]
  pKa: 5.3 ± 0.3
[6]
  Kd: 5.9 ± 0.8 µM
[7]
  effect on CD spectrum: does not alter the CD
[8]
  effect on average conformation (CD): did not substantially alter the average conformation
[9]
  effect on conformation (CD): remains disordered
[10]
  effect on CD spectrum: no indication of perturbation
[11]; pH 6
  effect on conformation (CD): remaining disordered
[11]; pH 7.4
  effect on conformation (CD): did not change the conformation
[12]; pH 6 (monomeric)
  titratable tyrosine fluorescence quenching (binding): no titratable quenching
[12]; pH 7.4
  titratable tyrosine fluorescence quenching (binding): does not exhibit titratable quenching
[13]
  binding by tyrosine quenching: no detectable binding
[14]
  Kd: 14.9 ± 1.9 µM
[15]
  titratable tyrosine fluorescence quenching (binding): no titratable quenching
[16]
  binding by titratable tyrosine quenching: complete loss of observable binding
[17]
  change in affinity, Myc402–412 peptide vs Myc353–437: 3 fold
  difference in affinity between Myc353–437 and Myc402–412 contexts: less than 0.7 kcal mol^−1
[17]; 1 µM Myc402–412 peptide, excess 34RH, Langmuir binding isotherm
  Kd: 11.5 ± 1.2 µM
[18]; pH 6
  Kd: 9.1 ± 3.9 µM
[18]; pH 7.4
  Kd: 23.4 ± 1.1 µM
[18]; MaxRH vs Myc353–437, pH 7.4
  affinity weaker than in the Myc context: about 6 fold
[18]; MaxRH vs Myc402–412 peptide, pH 7.4
  affinity weaker relative to the peptide: ~2 fold
[18]; pH 6 vs pH 7.4
  improvement of binding to MaxRH at pH 6: 2.5 fold
[19]
  binding by tyrosine quenching: eliminated binding
[20]
  Kd: 3.9 ± 1.3 µM
[21]
  effect on structural ensemble (CD): does not exhibit perturbations to the structural ensemble
